Laboratory results published in ChEMBL document CHEMBL1201862, “PubChem BioAssay data set” (2004).
The source made the active and inactive calls.

Legend:
[1] = test system: Vero; assay: West Nile virus antiviral activity, cell-based, CPE readout (AID 1621); assay type: functional; conditions: Chlorocebus sabaeus
[2] = target: T1, Mannose-6-phosphate isomerase (Homo sapiens, UniProt P34949); assay: human PMI inhibitors, high substrate, primary screen, biochemical, fluorescence intensity, high mannose 6-phosphate (AID 1220)
T1 sequence (P34949 whole entry): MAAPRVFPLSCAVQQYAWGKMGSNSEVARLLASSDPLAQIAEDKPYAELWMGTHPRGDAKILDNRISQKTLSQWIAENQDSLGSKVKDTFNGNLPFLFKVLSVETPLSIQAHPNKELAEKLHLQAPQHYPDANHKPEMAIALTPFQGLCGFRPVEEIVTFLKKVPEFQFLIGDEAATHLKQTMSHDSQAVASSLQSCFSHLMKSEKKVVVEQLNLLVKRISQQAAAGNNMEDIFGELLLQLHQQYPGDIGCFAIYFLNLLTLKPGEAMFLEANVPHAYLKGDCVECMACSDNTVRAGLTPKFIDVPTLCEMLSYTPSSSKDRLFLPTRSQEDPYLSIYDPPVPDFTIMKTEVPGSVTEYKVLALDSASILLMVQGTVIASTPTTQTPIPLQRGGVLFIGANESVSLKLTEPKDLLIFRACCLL

[3] = target: Nonstructural protein 1 (Influenza A virus, UniProt Q194T2); assay type: functional, Influenza A virus (A/California/07/2009(H1N1))
Chain of Nonstructural protein 1 (Q194T2 whole entry): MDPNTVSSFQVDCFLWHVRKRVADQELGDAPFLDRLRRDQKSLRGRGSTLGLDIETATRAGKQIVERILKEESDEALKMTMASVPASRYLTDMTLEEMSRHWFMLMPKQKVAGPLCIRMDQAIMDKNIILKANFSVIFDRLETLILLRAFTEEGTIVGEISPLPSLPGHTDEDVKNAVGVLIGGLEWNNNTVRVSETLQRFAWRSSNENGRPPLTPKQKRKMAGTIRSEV

[4] = target: T2, Polyadenylate-binding protein 1 (Homo sapiens, UniProt P11940); assay: PABP1 MLLE–PAM2 interaction inhibitors, dose response, miRNA deadenylation inhibitor project, biochemical, fluorescence polarization, Cy5-PAM2 peptide, secondary (AID 602260); assay type: functional; conditions: read-out: IC50_Mean
T2 sequence (P11940 whole entry): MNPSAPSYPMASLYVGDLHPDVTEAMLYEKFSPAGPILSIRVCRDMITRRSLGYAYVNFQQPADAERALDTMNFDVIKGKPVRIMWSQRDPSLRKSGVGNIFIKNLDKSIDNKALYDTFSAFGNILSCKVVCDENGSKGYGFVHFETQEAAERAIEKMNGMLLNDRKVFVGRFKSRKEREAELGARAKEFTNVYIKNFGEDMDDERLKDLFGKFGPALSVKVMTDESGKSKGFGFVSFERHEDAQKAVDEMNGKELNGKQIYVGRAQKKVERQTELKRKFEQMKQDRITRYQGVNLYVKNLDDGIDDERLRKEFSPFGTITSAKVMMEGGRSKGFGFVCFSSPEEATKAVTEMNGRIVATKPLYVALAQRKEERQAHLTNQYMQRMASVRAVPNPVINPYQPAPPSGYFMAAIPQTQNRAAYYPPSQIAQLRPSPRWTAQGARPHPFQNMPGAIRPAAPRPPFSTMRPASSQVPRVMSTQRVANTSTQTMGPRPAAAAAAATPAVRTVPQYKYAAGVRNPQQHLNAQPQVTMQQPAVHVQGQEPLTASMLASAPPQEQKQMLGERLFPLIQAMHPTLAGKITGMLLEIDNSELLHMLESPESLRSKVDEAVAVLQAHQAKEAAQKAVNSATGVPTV

[5] = target: T2, Polyadenylate-binding protein 1; assay: PABP1 MLLE–PAM2 binding inhibitor potency, dose response, biochemical, fluorescence polarization, FITC-PAM2 peptide (AID 602259); assay type: functional; conditions: read-out: IC50_Mean
[6] = target: T3, Low molecular weight phosphotyrosine protein phosphatase (Homo sapiens, UniProt P24666); assay: LMPTP phosphatase inhibitors, colorimetric pNPP readout, dose response, orthogonal assay, biochemical, absorbance, pNPP substrate, LMPTP-A isoform, set 2 (AID 743308); assay type: functional
T3 sequence (P24666 whole entry): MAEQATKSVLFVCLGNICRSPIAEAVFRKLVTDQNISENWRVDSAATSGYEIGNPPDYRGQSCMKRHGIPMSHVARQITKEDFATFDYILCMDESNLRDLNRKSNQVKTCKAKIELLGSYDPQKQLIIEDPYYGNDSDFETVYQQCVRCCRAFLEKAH

[7] = target: T3, Low molecular weight phosphotyrosine protein phosphatase; assay: LMPTP phosphatase inhibitors, dose response, biochemical, OMFP substrate, fluorescence intensity, set 2 (AID 743307); assay type: functional
[8] = target: Wee1-like protein kinase (Homo sapiens, UniProt P30291); assay: Dose Response Cell-based Assay for Inhibitors of Wee1 Degradation. [Related pubchem assays: 1410, 1321 ]; assay type: functional
Chain of Wee1-like protein kinase (P30291 whole entry): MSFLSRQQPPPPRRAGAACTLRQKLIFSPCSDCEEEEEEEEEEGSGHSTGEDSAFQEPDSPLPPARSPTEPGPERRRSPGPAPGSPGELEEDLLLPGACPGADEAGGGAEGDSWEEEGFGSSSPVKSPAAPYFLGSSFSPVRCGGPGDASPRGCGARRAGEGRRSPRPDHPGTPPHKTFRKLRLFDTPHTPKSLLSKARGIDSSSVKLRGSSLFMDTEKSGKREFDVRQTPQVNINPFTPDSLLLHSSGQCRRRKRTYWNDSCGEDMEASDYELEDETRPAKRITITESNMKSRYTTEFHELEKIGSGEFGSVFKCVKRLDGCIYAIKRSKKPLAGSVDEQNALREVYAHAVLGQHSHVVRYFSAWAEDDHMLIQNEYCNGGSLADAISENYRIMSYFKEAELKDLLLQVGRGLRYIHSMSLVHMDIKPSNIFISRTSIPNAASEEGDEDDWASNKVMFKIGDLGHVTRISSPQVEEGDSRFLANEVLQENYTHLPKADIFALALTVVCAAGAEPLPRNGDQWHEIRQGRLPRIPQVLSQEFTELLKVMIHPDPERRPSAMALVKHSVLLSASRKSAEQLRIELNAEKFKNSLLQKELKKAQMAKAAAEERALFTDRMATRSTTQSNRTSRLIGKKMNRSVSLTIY

[9] = target: G2/mitotic-specific cyclin-B1 (Homo sapiens, UniProt P14635); assay: Counterscreen assay for inhibitors of Wee1 degradation: dose response cell-based assay to identify inhibitors of cyclin B degradation. [Related pubchem assays: 1410, 1321 ]; assay type: functional
Chain of G2/mitotic-specific cyclin-B1 (P14635 whole entry): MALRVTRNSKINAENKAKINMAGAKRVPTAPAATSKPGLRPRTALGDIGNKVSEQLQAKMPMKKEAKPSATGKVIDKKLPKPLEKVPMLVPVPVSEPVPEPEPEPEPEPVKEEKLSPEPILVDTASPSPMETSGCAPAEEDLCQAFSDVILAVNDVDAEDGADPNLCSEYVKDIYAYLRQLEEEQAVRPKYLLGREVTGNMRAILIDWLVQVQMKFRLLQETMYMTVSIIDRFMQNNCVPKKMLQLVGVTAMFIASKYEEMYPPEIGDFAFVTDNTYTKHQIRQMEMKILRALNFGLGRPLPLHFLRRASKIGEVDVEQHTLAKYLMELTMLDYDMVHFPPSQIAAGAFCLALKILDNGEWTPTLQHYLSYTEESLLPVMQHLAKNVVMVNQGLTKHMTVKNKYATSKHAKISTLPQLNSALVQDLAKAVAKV

[10] = target: Insulin-degrading enzyme (Homo sapiens, UniProt P14735); assay: Dose Response: Fluorescence polarization-based cell-based high throughput dose response assay for inhibitors of insulin-degrading enzyme (IDE). [Related pubchem assays: 434962 (Primary screen (IDE inhibitors in singlicate)), 449730 (Counterscreen (Cytotoxicity in triplicate)), 435028 (Confirmation (IDE inhibitors in triplicate)), 434984 (Summary …; assay type: functional
Chain of Insulin-degrading enzyme (P14735 whole entry): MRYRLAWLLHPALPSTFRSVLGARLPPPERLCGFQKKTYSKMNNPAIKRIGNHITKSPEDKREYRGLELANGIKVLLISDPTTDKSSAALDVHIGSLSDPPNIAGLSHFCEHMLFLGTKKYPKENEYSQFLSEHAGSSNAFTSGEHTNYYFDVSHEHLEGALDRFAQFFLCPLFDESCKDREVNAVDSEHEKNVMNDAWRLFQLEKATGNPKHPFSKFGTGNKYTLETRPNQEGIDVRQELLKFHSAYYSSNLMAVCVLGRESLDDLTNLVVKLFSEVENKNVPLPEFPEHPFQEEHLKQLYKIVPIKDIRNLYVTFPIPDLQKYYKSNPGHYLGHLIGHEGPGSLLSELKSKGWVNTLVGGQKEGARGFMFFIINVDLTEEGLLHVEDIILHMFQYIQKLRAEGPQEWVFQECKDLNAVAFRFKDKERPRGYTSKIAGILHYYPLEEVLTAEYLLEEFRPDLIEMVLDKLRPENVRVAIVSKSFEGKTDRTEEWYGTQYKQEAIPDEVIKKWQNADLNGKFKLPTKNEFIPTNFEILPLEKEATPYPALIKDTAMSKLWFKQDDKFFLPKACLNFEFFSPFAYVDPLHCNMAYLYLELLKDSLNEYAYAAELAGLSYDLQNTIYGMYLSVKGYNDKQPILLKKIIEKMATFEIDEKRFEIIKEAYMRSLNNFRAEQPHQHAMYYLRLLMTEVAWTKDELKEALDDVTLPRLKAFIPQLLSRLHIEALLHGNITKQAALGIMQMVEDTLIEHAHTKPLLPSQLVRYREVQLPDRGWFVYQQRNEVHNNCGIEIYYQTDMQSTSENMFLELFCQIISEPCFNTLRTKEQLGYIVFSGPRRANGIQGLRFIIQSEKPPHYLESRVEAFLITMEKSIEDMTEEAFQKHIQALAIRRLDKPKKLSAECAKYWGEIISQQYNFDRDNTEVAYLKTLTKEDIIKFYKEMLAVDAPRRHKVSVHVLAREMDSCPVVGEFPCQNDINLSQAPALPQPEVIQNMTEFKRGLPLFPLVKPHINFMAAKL

[11] = Counterscreen for IDE inhibitors: Luminescence-based cell-based high throughput dose response assay to identify compounds that are cytotoxic to HEK cells. [Related pubchem assays: 434962 (Primary screen (IDE inhibitors in singlicate)), 449730 (Counterscreen (Cytotoxicity in triplicate)), 435028 (Confirmation (IDE inhibitors in triplicate)) …; assay type: functional; conditions: HEK293

Question: Which IC50 [1] does the source give for `Cc1ccc(C)c(CN2C(=O)c3ccccc3[S+]([O-])c3ccc(C(=O)NCCCN4CCCC4)cc32)c1` (configuration not stated) here?
Answer: The IC50 was 22 µM (active).

Question: Which IC50 [2] does the source give for `CCCCc1c(C)nc2ccc(Br)cc2c1SC(N)N` here?
Answer: Its IC50 is > 50 µM (not active).

Question: With `O=C(O)CNC(=O)CC1SC(NN=C2CSC(=O)N2)=NC1=O` (configuration not stated) as the compound, how does the IC50 [3] read?
Answer: The IC50 was 7.74 µM (active).

Question: What about the IC50 [2] of the same compound?
Answer: Its IC50 is 46.3 µM (active).

Question: And the IC50 [4]?
Answer: The IC50 was > 66 µM (inactive).

Question: What about the IC50 [5] of the same compound?
Answer: The IC50 was > 66 µM (inactive).

Question: With `c1ccc(-c2nc(NCCCN3CCCCC3)c3ccccc3n2)cc1` as the compound, how does the IC50 [6] read?
Answer: The IC50 was 38.6 µM (inactive).

Question: And the IC50 [7]?
Answer: The IC50 was 21.9 µM (inactive).

Question: For `O/C(=C\c1nc2ccccc2nc1O)c1cccs1`, which EC50 [8] is on record?
Answer: Its EC50 is > 49.7 µM (not active).

Question: And the EC50 [9]?
Answer: Its EC50 is > 49.7 µM (not active).

Question: For `Nc1c2c(nc3ccn(-c4ccccc4)c(=O)c13)CCCCC2`, which IC50 [10] is on record?
Answer: The IC50 was > 55.9 µM (not active).

Question: What about the IC50 [11] of the same compound?
Answer: Its IC50 is 22.3 µM (not active).
